Results on 24 compounds are retold here after patent US20100249132A1, “IMIDAZOLE DERIVATIVES” (MERCK PATENT GESELLSCHAFT MIT BESCHRANKTER HAFTUNG, priority 2007, published 2010).

Where only a bound is given, the exact number is not on record here.

The target of this experiment is T1, recombinant autotaxin (Homo sapiens, UniProt Q13822).
T1 construct: made in house; host or cells: Hi5 insect cells (baculovirus)
Kind of experiment: Autotaxin test (enzyme test), Amplex Red fluorescence. Conditions: substrate LPC 75 μM, Amplex Red detection, read-out: IC50 (autotaxin inhibition, enzyme test). It is filed as biochemical. How it is done:
Autotaxin Inhibition (Enzyme Test)
Autotaxin Test (Enzyme Test)
The autotaxin activity is measured indirectly using Amplex Red reagent. Amplex Red is measured here as fluorogenic indicator for the H2O2 formed. In detail, autotaxin converts the substrate lysophosphatidylcholine (LPC) into phosphocholine and lysophosphatidylic acid (LPA). After this reaction, the phosphocholine is reacted with alkaline phosphatase to give inorganic phosphate and choline. In the next step, choline is oxidised by choline oxidase to give betaine, with formation of H2O2. H2O2 reacts with Amplex Red reagent in the presence of peroxidase (horseradish peroxidase) in a 1:1 stoichiometry and forms the highly fluorescent resorufin. The fluorescence is measured in a reaction-dependent kinetic mode in order that fluorescent signals from possible other fluorescent substances which are not involved in the reaction can be corrected out.
1.5 μl of a standard solution or of the test substances (substances with the name A(n)) in individual concentrations dissolved in 20 mM Hepes pH 7.2 with a maximum of 7.7% of DMSO are pre-incubated together with 10 μl (16 ng) of highly purified recombinant autotaxin in a black microtitre plate provided with 384 wells at 22° C. for 30 min. The reaction is then initiated by addition of 5 μl of L-α-lysophosphatidylcholine (LPC), where the final concentration of LPC is 75 μM. The mixture is incubated at 37° C. for 90 min. After the incubation, Amplex Red reagent, peroxidase (horseradish peroxidase) and choline oxidase is added, and the fluorescence is immediately measured at 612 nm with excitation of 485 nm in a “Tecan Ultra multimode” reader. The activity of autotaxin is calculated indirectly via detection of the H2O2 formed. • Material: • Microtitre plate: PS microplate, 384 wells, small volume, black Corning, Cat #3677 • Protein: recombinant autotaxin (Baculovirale Hi5 Expression) • Substrate: L-α-lysophosphatidylcholine (chicken egg)); Avanti Polar Lipids #830071 P • Standard: C14 LPA, Avanti Polar Lipids, Cat #857120P • Detection reagent: Amplex Red reagent; Invitrogen #A12222; dissolved in 1.923 ml of DMSO peroxidase type VI-A (horseradish) from Sigma #P6782; dissolved in 7.45 ml of test buffer, choline oxidase; Sigma #C5896; dissolved in 2.47 ml of test buffer • Detection reagent mix: 1:100 dilution of Amplex Red reagent in test buffer • Test buffer: 200 mM Tris HCl, Merck, Cat #1.08219, pH 7.9, 0.1% of BSA, lipid-free, Roche Cat #775835
Turning to `COc1cc(NC(=O)Nc2[nH]c(COc3ccc(CC(=O)O)cc3)nc2C(N)=O)cc(OC)c1` [Compound A63, (4-{4-Carbamoyl-5-[3-(3,5-dimethoxyphenyl)-ureido]-1H-imidazol-2-ylmethoxy}phenyl)acetic acid], the 50% inhibitory concentration (IC50) is greater than 10 µM.

With `NC(=O)c1nc(COc2ccc(CC(=O)O)cc2)[nH]c1NC(=O)Nc1ccc(F)c(C(F)(F)F)c1` [Compound A64, (4-{4-Carbamoyl-5-[3-(4-fluoro-3-trifluoromethyl-phenyl)ureido]-1 H-imidazol-2-ylmethoxy}phenyl)-acetic acid], the IC50 was greater than 10 µM.

On to `NC(=O)c1nc(Cc2ccc(C(=O)O)s2)[nH]c1NC(=O)Nc1cccc(C(F)(F)F)c1` [Compound A65, 5-{4-Carbamoyl-5-[3-(3-trifluoromethylphenyl)-ureido]-1H-imidazol-2-ylmethyl}thiophene-2-carboxylic acid], for which the IC50 was greater than 10 µM.

Consider `NC(=O)c1nc(Cc2ccc(C(=O)O)s2)[nH]c1NC(=O)Nc1ccc(C(F)(F)F)cc1` [Compound A66, 5-{4-Carbamoyl-5-[3-(4-trifluoromethylphenyl)-ureido]-1H-imidazol-2-ylmethyl}thiophene-2-carboxylic acid], for which the IC50 lay in the range of 1 to 10 µM.

Consider `Cc1ccccc1NC(=O)Nc1[nH]c(Cc2ccc(C(=O)O)s2)nc1C(N)=O` [Compound A67, 5-[4-Carbamoyl-5-(3-o-tolylureido)-1H-imidazol 2-ylmethyl]thiophene-2-carboxylic acid], for which the concentration for half-maximal inhibition (IC50) is greater than 10 µM.

`CC(C)c1ccc(NC(=O)Nc2[nH]c(Cc3ccc(C(=O)O)s3)nc2C(N)=O)cc1` [Compound A68, 5-{4-Carbamoyl-5-[3-(4-isopropylphenyl)ureido]-1H-imidazol-2-ylmethyl}thiophene-2-carboxylic acid]: the IC50 lay within 1 to 10 µM.

Consider `Cc1ccc(NC(=O)Nc2[nH]c(Cc3ccc(C(=O)O)s3)nc2C(N)=O)cc1` [Compound A69, 5-[4-Carbamoyl-5-(3-p-tolylureido)-1H-imidazol 2-ylmethyl]thiophene-2-carboxylic acid], for which the concentration for half-maximal inhibition (IC50) is greater than 10 µM.

In the case of `Cc1ccc(NC(=O)Nc2[nH]c(Cc3ccc(C(=O)O)s3)nc2C(N)=O)c(C)c1` [Compound A71, 5-{4-Carbamoyl-5-[3-(2,4-dimethylphenyl)-ureido]-1H-imidazol-2-ylmethyl}thiophene-2-carboxylic acid], the half-inhibitory concentration (IC50) fell in the range of 1 to 10 µM.

For the compound `CCc1ccc(NC(=O)Nc2[nH]c(Cc3ccc(C(=O)O)s3)nc2C(N)=O)cc1` [Compound A72, 5-{4-Carbamoyl-5-[3-(4-ethylphenyl)ureido]-1H-imidazol-2-ylmethyl}thiophene-2-carboxylic acid], the half-inhibitory concentration (IC50) fell in the range of 1 to 10 µM.

Regarding `Cc1cc(NC(=O)Nc2[nH]c(Cc3ccc(C(=O)O)s3)nc2C(N)=O)ccc1F` [Compound A73, 5-{4-Carbamoyl-5-[3-(4-fluoro-3-methylphenyl)-ureido]-1H-imidazol-2-ylmethyl}thiophene-2-carboxylic acid], the concentration for half-maximal inhibition (IC50) is greater than 10 µM.

`Cc1cc(Cl)ccc1NC(=O)Nc1[nH]c(Cc2ccc(C(=O)O)s2)nc1C(N)=O` [Compound A74, 5-{4-Carbamoyl-5-[3-(4-chloro-2-methylphenyl)-ureido]-1H-imidazol-2-ylmethyl}thiophene-2-carboxylic acid]: the IC50 is 1 to 10 µM.

For the compound `NC(=O)c1nc(Cc2ccc(C(=O)O)s2)[nH]c1NC(=O)Nc1ccc(F)c(C(F)(F)F)c1` [Compound A75, 5-{4-Carbamoyl-5-[3-(4-fluoro-3-trifluoromethyl-phenyl)ureido]-1H-imidazol-2-ylmethyl}-thiophene-2-carboxylic acid], the concentration for half-maximal inhibition (IC50) is greater than 10 µM.

In the case of `CCCCc1ccc(NC(=O)Nc2[nH]c(Cc3ccc(C(=O)NC4CCCCC4)o3)nc2C(N)=O)cc1` [Compound A77, 5-[3-(4-Butylphenyl)ureido]-2-(5-cyclohexyl-carbamoylfuran-2-ylmethyl)-1H-imidazole-4-carboxamide], the IC50 is greater than 10 µM.

As to `CCCCc1ccc(NC(=O)Nc2[nH]c(Cc3ccc(C(=O)N(CC)CC)o3)nc2C(N)=O)cc1` [Compound A78, 5-[3-(4-Butylphenyl)ureido]-2-(5-diethyl-carbamoylfuran-2-ylmethyl)-1H-imidazole-4-carboxamide], the IC50 is greater than 10 µM.

With `CCCCc1ccc(NC(=O)Nc2[nH]c(Cc3ccc(C(=O)N(C)CCCC)o3)nc2C(N)=O)cc1` [Compound A79, 2-[5-(Butylmethylcarbamoyl)furan-2-ylmethyl]-5-[3-(4-butylphenyl)ureido]-1H-imidazole-4-carboxamide], the half-inhibitory concentration (IC50) was greater than 10 µM.

`CCCCc1ccc(NC(=O)Nc2[nH]c(Cc3ccc(C(=O)N(CCCC)CCCC)o3)nc2C(N)=O)cc1` [Compound A80, 5-[3-(4-Butylphenyl)ureido]-2-(5-dibutyl-carbamoylfuran-2-ylmethyl)-1H-imidazole-4-carboxamide]: the IC50 is greater than 10 µM.

Turning to `CCCCc1ccc(NC(=O)Nc2[nH]c(Cc3ccc(C(=O)N4CCCC4)o3)nc2C(N)=O)cc1` [Compound A81, 5-[3-(4-Butylphenyl)ureido]-2-[5-(pyrrolidine-1-carbonyl)furan-2-ylmethyl]-1H-imidazole-4-carboxamide], the IC50 is greater than 10 µM.

As for `CCCCc1ccc(NC(=O)Nc2[nH]c(Cc3ccc(C(=O)N4C[C@@H](C)O[C@@H](C)C4)o3)nc2C(N)=O)cc1` [Compound A82, 5-[3-(4-Butylphenyl)ureido]-2-[5-((5R,6S)-2,6-dimethylmorpholine-4-carbonyl)furan-2-yl-methyl]-1H-imidazole-4-carboxamide], the IC50 was greater than 10 µM.

In the case of `CCCCc1ccc(NC(=O)Nc2[nH]c(Cc3ccc(C(=O)N4CCOCC4)o3)nc2C(N)=O)cc1` [Compound A83, 5-[3-(4-Butylphenyl)ureido]-2-[5-(morpholine-4-carbonyl)furan-2-ylmethyl]-1H-imidazole-4-carboxamide], the 50% inhibitory concentration (IC50) was greater than 10 µM.

Regarding `CCCCc1ccc(NC(=O)Nc2[nH]c(Cc3ccc(C(=O)N(C)c4ccccc4)o3)nc2C(N)=O)cc1` [Compound A84, 5-[3-(4-Butylphenyl)ureido]-2-[5-(methylphenyl-carbamoyl)furan-2-ylmethyl]-1H-imidazole-4-carboxamide], the half-inhibitory concentration (IC50) lay within 1 to 10 µM.

In the case of `CCCCc1ccc(NC(=O)Nc2[nH]c(Cc3ccc(C(=O)N4CCN(C)CC4)o3)nc2C(N)=O)cc1` [Compound A85, 5-[3-(4-Butylphenyl)ureido]-2-[5-(4-methyl-piperazine-1-carbonyl)furan-2-ylmethyl]-1H-imidazole-4-carboxamide], the IC50 was in the range of 1 to 10 µM.

As to `CCCCc1ccc(NC(=O)Nc2[nH]c(Cc3ccc(C(=O)N4CCN(c5ccccc5)CC4)o3)nc2C(N)=O)cc1` [Compound A86, 5-[3-(4-Butylphenyl)ureido]-2-[5-(4-phenyl-piperazine-1-carbonyl)furan-2-ylmethyl]-1H-imidazole-4-carboxamide], the IC50 is greater than 10 µM.

As for `CCCCc1ccc(NC(=O)Nc2[nH]c(Cc3ccc(C(=O)N4CCC(C)CC4)o3)nc2C(N)=O)cc1` [Compound A87, 5-[3-(4-Butylphenyl)ureido]-2-[5-(4-methyl-piperidine-1-carbonyl)furan-2-ylmethyl]-1H-imidazole-4-carboxamide], the IC50 is greater than 10 µM.

Consider `CCCCc1ccc(NC(=O)Nc2[nH]c(Cc3ccc(C(=O)N4CCCCC4)o3)nc2C(N)=O)cc1` [Compound A88, 5-[3-(4-Butylphenyl)ureido]-2-[5-(piperidine-1-carbonyl)furan-2-ylmethyl]-1H-imidazole-4-carboxamide], for which the 50% inhibitory concentration (IC50) was greater than 10 µM.

As usually defined, the IC50 is the midpoint of a concentration-inhibition curve.
